According to patent US20110251286A1, “Crystalline salts and/or co-crystals of O-desmethyltramadol” (GRUENENTHAL GmbH, priority 2010, published 2011):

Experiments:
[1] = Release in artificial intestinal juice; assay type: physicochemical; conditions: permeable bag, amount calculated on 100 mg free base
Procedure: Investigations on release were carried out in a Sotax AT7 smart release apparatus with UV measurement (Perkin Elmer photometer).
A vessel with Wood apparatus was used (for intrinsic release).
A pressing of 0.5 cm^2 surface area (diameter 8 mm) was produced with a force of 200 N using approximately 100 mg of active ingredient.
Release was carried out in a release medium, which is composed as described below: • Intestinal juice without pancreas powder, pH 6.8 (analogous to Ph. Eur.); 250.0 ml 6.8 g of potassium dihydrogenphosphate R+0.896 g of NaOH+water to 1000.0 ml.
Release was carried out in a release volume of in each case 500±5 ml at a temperature of the release medium of 37±1° C. with a stirring speed of 100±5 rpm.
The content determination was carried out by means of spectroscopic methods (UV spectroscopy, wavelength: 271 nm, cuvette: 10 mm). Sample taking was carried out manually.
In this release experiment, the individual compounds were placed in a permeable bag in an amount in each case calculated on 100 mg of the free base.
The results, expressed in percent of the substance released, are reproduced in the following tables. In this case, the compounds denote: HCl: hydrochloride; A: cinnamate; B: palmitate; C: decanoate; E: hemi-fumarate and F: hemi-sebacate.

[2] = Dynamic vapor sorption (DVS): sorption and desorption of moisture; assay type: physicochemical
Procedure: Investigations on the sorption and desorption of moisture (dynamic vapor sorption, DVS): DVS measurements were carried out on an apparatus of the type DVS 1000 from Porotec. The evaluation of the measurements was carried out using software from Surface Measurement Systems. At a temperature between 23° C. and 26° C., starting from a relative humidity of 50%, within 240 minutes the relative humidity first increased to 90% and then fell to 0%. This cycle was repeated a second time. The DVS charts shown are isothermal recordings (plots) of the change in the mass in % (change in mass—dry) as a function of the desired relative humidity in % (target RH). Correspondingly, the axes of the graphs are marked by ΔM [%] and RH [%]. The measurement curves of the first sorption are designated by 1-S, the subsequent first desorption by 1-D, the second sorption by 2-S and the second desorption by 2-D. Advantageously, mass changes between the sorption and desorption phase are as low as possible.

## CN(C)CC1CCCCC1(O)c1cccc(O)c1.CN(C)CC1CCCCC1(O)c1cccc(O)c1.O=C(O)C=CC(=O)O (stereo not drawn) [E-1]
[1]; t 2 min
  Release in artificial intestinal juice, percent of the substance released: 99.32%
[1]; t 4 min
  Release in artificial intestinal juice, percent of the substance released: 100.25%
[1]; t 6 min
  Release in artificial intestinal juice, percent of the substance released: 99.24%
[1]; t 8 min
  Release in artificial intestinal juice, percent of the substance released: 99.47%
[1]; t 10 min
  Release in artificial intestinal juice, percent of the substance released: 100.58%
[1]; t 12 min
  Release in artificial intestinal juice, percent of the substance released: 99.42%
[1]; t 15 min
  Release in artificial intestinal juice, percent of the substance released: 98.40%
[1]; t 30 min
  Release in artificial intestinal juice, percent of the substance released: 100.24%

## CN(C)CC1CCCCC1(O)c1cccc(O)c1.CN(C)CC1CCCCC1(O)c1cccc(O)c1.O=C(O)C=CC(=O)O (stereo not drawn) [E-2]
[1]; t 2 min
  Release in artificial intestinal juice, percent of the substance released: 95.38%
[1]; t 4 min
  Release in artificial intestinal juice, percent of the substance released: 96.67%
[1]; t 6 min
  Release in artificial intestinal juice, percent of the substance released: 95.80%
[1]; t 8 min
  Release in artificial intestinal juice, percent of the substance released: 96.46%
[1]; t 10 min
  Release in artificial intestinal juice, percent of the substance released: 96.47%
[1]; t 12 min
  Release in artificial intestinal juice, percent of the substance released: 96.45%
[1]; t 15 min
  Release in artificial intestinal juice, percent of the substance released: 96.19%
[1]; t 30 min
  Release in artificial intestinal juice, percent of the substance released: 96.42%

## CN(C)CC1CCCCC1(O)c1cccc(O)c1.CN(C)CC1CCCCC1(O)c1cccc(O)c1.O=C(O)CCCCCCCCC(=O)O (stereo not drawn) [F-1]
[1]; t 2 min
  Release in artificial intestinal juice, percent of the substance released: 90.31%
[1]; t 4 min
  Release in artificial intestinal juice, percent of the substance released: 95.86%
[1]; t 6 min
  Release in artificial intestinal juice, percent of the substance released: 98.37%
[1]; t 8 min
  Release in artificial intestinal juice, percent of the substance released: 99.10%
[1]; t 10 min
  Release in artificial intestinal juice, percent of the substance released: 98.48%
[1]; t 12 min
  Release in artificial intestinal juice, percent of the substance released: 98.55%
[1]; t 15 min
  Release in artificial intestinal juice, percent of the substance released: 99.15%
[1]; t 30 min
  Release in artificial intestinal juice, percent of the substance released: 98.74%

## CN(C)CC1CCCCC1(O)c1cccc(O)c1.CN(C)CC1CCCCC1(O)c1cccc(O)c1.O=C(O)CCCCCCCCC(=O)O (stereo not drawn) [F-2]
[1]; t 2 min
  Release in artificial intestinal juice, percent of the substance released: 96.05%
[1]; t 4 min
  Release in artificial intestinal juice, percent of the substance released: 99.26%
[1]; t 6 min
  Release in artificial intestinal juice, percent of the substance released: 100.16%
[1]; t 8 min
  Release in artificial intestinal juice, percent of the substance released: 1.21%
[1]; t 10 min
  Release in artificial intestinal juice, percent of the substance released: 100.92%
[1]; t 12 min
  Release in artificial intestinal juice, percent of the substance released: 101.24%
[1]; t 15 min
  Release in artificial intestinal juice, percent of the substance released: 101.22%
[1]; t 30 min
  Release in artificial intestinal juice, percent of the substance released: 101.26%

## CN(C)C[C@H]1CCCC[C@]1(O)c1cccc(O)c1.Cl [HCl-1]
[1]; t 2 min
  Release in artificial intestinal juice, percent of the substance released: 99.16%
[1]; t 4 min
  Release in artificial intestinal juice, percent of the substance released: 99.89%
[1]; t 6 min
  Release in artificial intestinal juice, percent of the substance released: 98.77%
[1]; t 8 min
  Release in artificial intestinal juice, percent of the substance released: 101.08%
[1]; t 10 min
  Release in artificial intestinal juice, percent of the substance released: 100.57%
[1]; t 12 min
  Release in artificial intestinal juice, percent of the substance released: 100.66%
[1]; t 15 min
  Release in artificial intestinal juice, percent of the substance released: 99.62%
[1]; t 30 min
  Release in artificial intestinal juice, percent of the substance released: 101.02%

## CN(C)C[C@H]1CCCC[C@]1(O)c1cccc(O)c1 [free base, (+)-(1R,2R)-3-[2-(dimethylamino)methyl-1-hydroxycyclohexyl]phenol]
[2]; 1st cycle, RH 0.0 %
  ΔM Desorption: 0.00000%
[2]; 1st cycle, RH 10.0 %
  ΔM Desorption: 0.00395%
[2]; 1st cycle, RH 20.0 %
  ΔM Desorption: 0.00526%
[2]; 1st cycle, RH 30.0 %
  ΔM Desorption: 0.00526%
[2]; 1st cycle, RH 40.0 %
  ΔM Desorption: 0.00636%
[2]; 1st cycle, RH 50.0 %
  ΔM Desorption: 0.00614%
  ΔM Hysteresis: −0.00241%
  ΔM Sorption: 0.00855%
[2]; 1st cycle, RH 60.0 %
  ΔM Desorption: 0.00526%
  ΔM Hysteresis: −0.00219%
  ΔM Sorption: 0.00746%
[2]; 1st cycle, RH 70.0 %
  ΔM Desorption: 0.00395%
  ΔM Hysteresis: 0.00219%
  ΔM Sorption: 0.00175%
[2]; 1st cycle, RH 80.0 %
  ΔM Desorption: 0.00132%
  ΔM Hysteresis: 0.00592%
  ΔM Sorption: −0.00461%
[2]; 1st cycle, RH 90.0 %
  ΔM Desorption: −0.01097%
  ΔM Sorption: −0.01097%
[2]; 2nd cycle, RH 0.0 %
  ΔM Desorption: −0.00461%
  ΔM Sorption: 0.00000%
[2]; 2nd cycle, RH 10.0 %
  ΔM Desorption: −0.00132%
  ΔM Hysteresis: −0.00329%
  ΔM Sorption: 0.00197%
[2]; 2nd cycle, RH 20.0 %
  ΔM Desorption: 0.00044%
  ΔM Hysteresis: −0.00351%
  ΔM Sorption: 0.00395%
[2]; 2nd cycle, RH 30.0 %
  ΔM Desorption: 0.00132%
  ΔM Hysteresis: −0.00395%
  ΔM Sorption: 0.00526%
[2]; 2nd cycle, RH 40.0 %
  ΔM Desorption: 0.00307%
  ΔM Hysteresis: −0.00395%
  ΔM Sorption: 0.00702%
[2]; 2nd cycle, RH 50.0 %
  ΔM Desorption: 0.00395%
  ΔM Hysteresis: −0.00592%
  ΔM Sorption: 0.00987%
[2]; 2nd cycle, RH 60.0 %
  ΔM Desorption: 0.00395%
  ΔM Hysteresis: −0.00724%
  ΔM Sorption: 0.01119%
[2]; 2nd cycle, RH 70.0 %
  ΔM Desorption: 0.00329%
  ΔM Hysteresis: −0.00417%
  ΔM Sorption: 0.00746%
[2]; 2nd cycle, RH 80.0 %
  ΔM Desorption: 0.00132%
  ΔM Hysteresis: 0.00197%
  ΔM Sorption: −0.00066%
[2]; 2nd cycle, RH 90.0 %
  ΔM Desorption: −0.01031%
  ΔM Sorption: −0.01031%
[2]; 3rd cycle, RH 0.0 %
  ΔM Sorption: −0.00461%
[2]; 3rd cycle, RH 10.0 %
  ΔM Sorption: −0.0011%
[2]; 3rd cycle, RH 20.0 %
  ΔM Sorption: 0.00066%
[2]; 3rd cycle, RH 30.0 %
  ΔM Sorption: 0.00197%
[2]; 3rd cycle, RH 40.0 %
  ΔM Sorption: 0.00461%
[2]; 3rd cycle, RH 50.0 %
  ΔM Sorption: 0.00768%
